Reference: PubChem BioAssay (NCI)
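Five compound concentrations were applied to cells in 96-well plates for 48 hours; endpoints were derived by simple linear interpolation of the resulting dose-response curve. The concentration for 50% growth inhibition is given as GI50. TGI marks complete inhibition of growth.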

Experiments:
Test in all cases: inhibition of tumour cell growth, NCI panel, 48 h
786-0 renal = system: 786-0 renal
A498 renal = system: A498 renal
A549 NSCLC = system: A549 NSCLC
ACHN renal = system: ACHN renal
BT-549 breast = system: BT-549 breast
CAKI-1 renal = system: CAKI-1 renal
CCRF-CEM leukemia = system: CCRF-CEM leukemia
COLO 205 colon = system: COLO 205 colon
DU-145 prostate = system: DU-145 prostate
EKVX NSCLC = system: EKVX NSCLC
HCC-2998 colon = system: HCC-2998 colon
HCT-116 colon = system: HCT-116 colon
HCT-15 colon = system: HCT-15 colon
HL-60(TB) leukemia = system: HL-60(TB) leukemia
HOP-62 NSCLC = system: HOP-62 NSCLC
HOP-92 NSCLC = system: HOP-92 NSCLC
HS 578T breast = system: HS 578T breast
HT29 colon = system: HT29 colon
IGROV1 ovarian = system: IGROV1 ovarian
K-562 leukemia = system: K-562 leukemia
KM12 colon = system: KM12 colon
LOX IMVI melanoma = system: LOX IMVI melanoma
M14 melanoma = system: M14 melanoma
MALME-3M melanoma = system: MALME-3M melanoma
MCF7 breast = system: MCF7 breast
MDA-MB-231 breast = system: MDA-MB-231 breast
MDA-MB-435 = system: MDA-MB-435
MOLT-4 leukemia = system: MOLT-4 leukemia
NCI-H226 lung = system: NCI-H226 lung
NCI-H23 lung = system: NCI-H23 lung
NCI-H460 lung = system: NCI-H460 lung
NCI-H522 lung = system: NCI-H522 lung
NCI/ADR-RES ovarian = system: NCI/ADR-RES ovarian
OVCAR-3 ovarian = system: OVCAR-3 ovarian
OVCAR-4 ovarian = system: OVCAR-4 ovarian
OVCAR-5 ovarian = system: OVCAR-5 ovarian
OVCAR-8 ovarian = system: OVCAR-8 ovarian
PC-3 prostate = system: PC-3 prostate
RPMI-8226 leukemia = system: RPMI-8226 leukemia
RXF 393 renal = system: RXF 393 renal
SF-268 CNS = system: SF-268 CNS
SF-295 CNS = system: SF-295 CNS
SF-539 CNS = system: SF-539 CNS
SK-MEL-2 melanoma = system: SK-MEL-2 melanoma
SK-MEL-28 melanoma = system: SK-MEL-28 melanoma
SK-MEL-5 melanoma = system: SK-MEL-5 melanoma
SK-OV-3 ovarian = system: SK-OV-3 ovarian
SN12C renal = system: SN12C renal
SNB-19 CNS = system: SNB-19 CNS
SNB-75 CNS = system: SNB-75 CNS
SR leukemia = system: SR leukemia
SW-620 colon = system: SW-620 colon
T-47D breast = system: T-47D breast
TK-10 renal = system: TK-10 renal
U251 CNS = system: U251 CNS
UACC-257 melanoma = system: UACC-257 melanoma
UACC-62 melanoma = system: UACC-62 melanoma
UO-31 renal = system: UO-31 renal

O=c1c2cc(Cl)ccc2oc2ccc(OCCCCCN3CCCCC3)cc12
GI50 (786-0 renal): 5.91 µM | TGI (786-0 renal): 12.5 µM | GI50 (A498 renal): 6.28 µM | TGI (A498 renal): 12.8 µM | GI50 (A549 NSCLC): 4.78 µM | TGI (A549 NSCLC): 10.9 µM | GI50 (ACHN renal): 5.28 µM | TGI (ACHN renal): 11.2 µM | GI50 (BT-549 breast): 6.26 µM | TGI (BT-549 breast): 12.8 µM | GI50 (CAKI-1 renal): 3.24 µM | TGI (CAKI-1 renal): 9.84 µM | GI50 (CCRF-CEM leukemia): 3.92 µM | TGI (CCRF-CEM leukemia): 11.3 µM | GI50 (COLO 205 colon): 1000 nM | TGI (COLO 205 colon): 2290 nM | GI50 (DU-145 prostate): 6.4 µM | TGI (DU-145 prostate): 12.7 µM | GI50 (EKVX NSCLC): 6.25 µM | TGI (EKVX NSCLC): 13.2 µM | GI50 (HCC-2998 colon): 8.55 µM | TGI (HCC-2998 colon): 16.9 µM | GI50 (HCT-116 colon): 1750 nM | TGI (HCT-116 colon): 6.8 µM | GI50 (HCT-15 colon): 1260 nM | TGI (HCT-15 colon): 3.45 µM | GI50 (HL-60(TB) leukemia): 6.24 µM | TGI (HL-60(TB) leukemia): 15.4 µM | GI50 (HOP-62 NSCLC): 7.03 µM | TGI (HOP-62 NSCLC): 14.4 µM | GI50 (HOP-92 NSCLC): 3.55 µM | TGI (HOP-92 NSCLC): 10.3 µM | GI50 (HS 578T breast): 6.16 µM | TGI (HS 578T breast): 15.1 µM | GI50 (HT29 colon): 1270 nM | TGI (HT29 colon): 3.31 µM | GI50 (IGROV1 ovarian): 6.77 µM | TGI (IGROV1 ovarian): 14.4 µM | GI50 (K-562 leukemia): 1760 nM | TGI (K-562 leukemia): 7.55 µM | GI50 (KM12 colon): 2680 nM | TGI (KM12 colon): 9 µM | GI50 (LOX IMVI melanoma): 967 nM | TGI (LOX IMVI melanoma): 2120 nM | GI50 (M14 melanoma): 1170 nM | TGI (M14 melanoma): 2840 nM | GI50 (MALME-3M melanoma): 6.86 µM | TGI (MALME-3M melanoma): 14.1 µM | GI50 (MCF7 breast): 5.24 µM | TGI (MCF7 breast): 14.6 µM | GI50 (MDA-MB-231 breast): 3.15 µM | TGI (MDA-MB-231 breast): 9.77 µM | GI50 (MDA-MB-435): 1020 nM | TGI (MDA-MB-435): 2370 nM | GI50 (MOLT-4 leukemia): 3.16 µM | TGI (MOLT-4 leukemia): 10.7 µM | GI50 (NCI-H226 lung): 8.74 µM | TGI (NCI-H226 lung): 18.6 µM | GI50 (NCI-H23 lung): 5.37 µM | TGI (NCI-H23 lung): 12 µM | GI50 (NCI-H460 lung): 1730 nM | TGI (NCI-H460 lung): 5.55 µM | GI50 (NCI-H522 lung): 3.48 µM | TGI (NCI-H522 lung): 10.4 µM | GI50 (NCI/ADR-RES ovarian): 5.47 µM | TGI (NCI/ADR-RES ovarian): 24.8 µM | GI50 (OVCAR-3 ovarian): 5.47 µM | TGI (OVCAR-3 ovarian): 11.5 µM | GI50 (OVCAR-4 ovarian): 5.5 µM | TGI (OVCAR-4 ovarian): 11.9 µM | GI50 (OVCAR-5 ovarian): 5.17 µM | TGI (OVCAR-5 ovarian): 11.2 µM | GI50 (OVCAR-8 ovarian): 6.09 µM | TGI (OVCAR-8 ovarian): 14.2 µM | GI50 (PC-3 prostate): 6.05 µM | TGI (PC-3 prostate): 12.7 µM | GI50 (RPMI-8226 leukemia): 3.6 µM | TGI (RPMI-8226 leukemia): 12.4 µM | GI50 (RXF 393 renal): 1860 nM | TGI (RXF 393 renal): 7.2 µM | GI50 (SF-268 CNS): 5.28 µM | TGI (SF-268 CNS): 12.2 µM | GI50 (SF-295 CNS): 6.62 µM | TGI (SF-295 CNS): 13.5 µM | GI50 (SF-539 CNS): 4.21 µM | TGI (SF-539 CNS): 10.6 µM | GI50 (SK-MEL-2 melanoma): 2090 nM | TGI (SK-MEL-2 melanoma): 7.96 µM | GI50 (SK-MEL-28 melanoma): 1090 nM | TGI (SK-MEL-28 melanoma): 2660 nM | GI50 (SK-MEL-5 melanoma): 892 nM | TGI (SK-MEL-5 melanoma): 1910 nM | GI50 (SK-OV-3 ovarian): 6.96 µM | TGI (SK-OV-3 ovarian): 13.4 µM | GI50 (SN12C renal): 5.59 µM | TGI (SN12C renal): 11.9 µM | GI50 (SNB-19 CNS): 6.83 µM | TGI (SNB-19 CNS): 13.5 µM | GI50 (SNB-75 CNS): 7.44 µM | TGI (SNB-75 CNS): 14 µM | GI50 (SR leukemia): 1470 nM | TGI (SR leukemia): 5.47 µM | GI50 (SW-620 colon): 1550 nM | TGI (SW-620 colon): 5.09 µM | GI50 (T-47D breast): 7.21 µM | TGI (T-47D breast): 17 µM | GI50 (TK-10 renal): 8.06 µM | TGI (TK-10 renal): 15 µM | GI50 (U251 CNS): 6.12 µM | TGI (U251 CNS): 12.7 µM | GI50 (UACC-257 melanoma): 1300 nM | TGI (UACC-257 melanoma): 3.2 µM | GI50 (UACC-62 melanoma): 1010 nM | TGI (UACC-62 melanoma): 2060 nM | GI50 (UO-31 renal): 3.98 µM | TGI (UO-31 renal): 10.4 µM
